Article PMC11851430, “Workflow for E3 Ligase Ligand Validation for PROTAC Development” (ACS Chemical Biology, 2025)

How the values were obtained:
AURKBA = molecular target: T1, AURKBA (Homo sapiens, UniProt Q96GD4); assay: DSF assay; format: binding; conditions: 20 µM compound
T1 construct: purchased in-house DSF panel (SGC-style construct names; the trailing A/B is a construct suffix)

CAMK1GA = molecular target: T2, CAMK1GA (Homo sapiens, UniProt Q96NX5); assay: DSF assay; format: binding; conditions: 20 µM compound
T2 construct: purchased in-house DSF panel (SGC-style construct names; the trailing A/B is a construct suffix)
T2 sequence (Q96NX5 23-277): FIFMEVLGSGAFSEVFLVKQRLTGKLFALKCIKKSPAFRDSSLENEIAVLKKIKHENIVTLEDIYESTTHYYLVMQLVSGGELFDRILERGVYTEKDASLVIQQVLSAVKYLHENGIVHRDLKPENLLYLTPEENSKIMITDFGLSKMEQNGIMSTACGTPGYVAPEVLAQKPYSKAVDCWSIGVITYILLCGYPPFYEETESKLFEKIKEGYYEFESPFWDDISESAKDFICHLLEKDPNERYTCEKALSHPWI

PIM3A = molecular target: T3, PIM3A (Homo sapiens, UniProt Q86V86); assay: DSF assay; format: binding; conditions: 20 µM compound
T3 construct: purchased in-house DSF panel (SGC-style construct names; the trailing A/B is a construct suffix)

SRCA = molecular target: T4, SRCA (Homo sapiens, UniProt P12931); assay: DSF assay; format: binding; conditions: 20 µM compound
T4 construct: purchased in-house DSF panel (SGC-style construct names; the trailing A/B is a construct suffix)
T4 sequence (P12931 254-536): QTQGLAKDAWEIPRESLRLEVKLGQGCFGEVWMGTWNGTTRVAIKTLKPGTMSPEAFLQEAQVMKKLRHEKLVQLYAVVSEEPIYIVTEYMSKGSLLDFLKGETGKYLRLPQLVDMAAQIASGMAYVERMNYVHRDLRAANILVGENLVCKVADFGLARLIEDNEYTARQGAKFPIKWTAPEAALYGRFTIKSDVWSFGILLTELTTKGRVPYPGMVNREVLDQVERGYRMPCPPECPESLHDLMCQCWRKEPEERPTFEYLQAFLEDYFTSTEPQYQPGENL

STK39A = molecular target: T5, STK39A (Homo sapiens, UniProt Q9UEW8); assay: DSF assay; format: binding; conditions: 20 µM compound
T5 construct: purchased in-house DSF panel (SGC-style construct names; the trailing A/B is a construct suffix)

EPHA7A = molecular target: T6, EPHA7A (Homo sapiens, UniProt Q15375); assay: DSF assay; format: binding; conditions: 20 µM compound
T6 construct: purchased in-house DSF panel (SGC-style construct names; the trailing A/B is a construct suffix)
T6 sequence (Q15375 590-899): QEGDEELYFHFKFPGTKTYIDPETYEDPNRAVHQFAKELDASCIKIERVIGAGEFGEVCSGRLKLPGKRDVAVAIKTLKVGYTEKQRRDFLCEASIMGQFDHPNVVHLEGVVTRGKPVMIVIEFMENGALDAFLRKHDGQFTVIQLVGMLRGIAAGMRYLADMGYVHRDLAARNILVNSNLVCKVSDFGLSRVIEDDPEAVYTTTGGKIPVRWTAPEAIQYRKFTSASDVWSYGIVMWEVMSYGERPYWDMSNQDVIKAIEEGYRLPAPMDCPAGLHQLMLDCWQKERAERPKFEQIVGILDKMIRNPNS

GSG2A = molecular target: T7, GSG2A (Homo sapiens, UniProt Q8TF76); assay: DSF assay; format: binding; conditions: 20 µM compound
T7 construct: purchased in-house DSF panel (SGC-style construct names; the trailing A/B is a construct suffix)
T7 sequence (Q8TF76 465-798): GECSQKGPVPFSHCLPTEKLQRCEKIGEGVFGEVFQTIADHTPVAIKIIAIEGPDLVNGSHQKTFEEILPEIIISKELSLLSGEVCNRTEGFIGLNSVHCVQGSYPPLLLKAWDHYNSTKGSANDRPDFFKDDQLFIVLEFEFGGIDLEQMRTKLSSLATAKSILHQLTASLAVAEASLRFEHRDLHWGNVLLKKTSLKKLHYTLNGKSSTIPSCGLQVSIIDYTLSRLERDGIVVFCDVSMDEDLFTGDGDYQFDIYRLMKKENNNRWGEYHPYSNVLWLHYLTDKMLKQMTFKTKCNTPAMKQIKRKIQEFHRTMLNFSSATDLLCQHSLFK

MAPK6 = molecular target: T8, MAPK6 (Homo sapiens, UniProt Q16659); assay: DSF assay; format: binding; conditions: 20 µM compound
T8 construct: purchased in-house DSF panel (SGC-style construct names; the trailing A/B is a construct suffix)
T8 sequence (Q16659 9-327): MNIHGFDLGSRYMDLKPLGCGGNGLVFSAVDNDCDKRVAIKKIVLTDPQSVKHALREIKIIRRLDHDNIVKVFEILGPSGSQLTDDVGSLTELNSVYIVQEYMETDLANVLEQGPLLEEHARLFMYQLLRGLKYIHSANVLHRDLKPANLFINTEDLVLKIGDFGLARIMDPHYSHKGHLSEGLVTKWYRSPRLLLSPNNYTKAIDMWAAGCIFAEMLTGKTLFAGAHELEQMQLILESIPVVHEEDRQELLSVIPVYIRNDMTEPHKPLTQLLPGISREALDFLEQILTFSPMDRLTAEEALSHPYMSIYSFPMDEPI

CAMK4A = molecular target: T9, CAMK4A (Homo sapiens, UniProt Q16566); assay: DSF assay; format: binding; conditions: 20 µM compound
T9 construct: purchased in-house DSF panel (SGC-style construct names; the trailing A/B is a construct suffix)
T9 sequence (Q16566 1-473): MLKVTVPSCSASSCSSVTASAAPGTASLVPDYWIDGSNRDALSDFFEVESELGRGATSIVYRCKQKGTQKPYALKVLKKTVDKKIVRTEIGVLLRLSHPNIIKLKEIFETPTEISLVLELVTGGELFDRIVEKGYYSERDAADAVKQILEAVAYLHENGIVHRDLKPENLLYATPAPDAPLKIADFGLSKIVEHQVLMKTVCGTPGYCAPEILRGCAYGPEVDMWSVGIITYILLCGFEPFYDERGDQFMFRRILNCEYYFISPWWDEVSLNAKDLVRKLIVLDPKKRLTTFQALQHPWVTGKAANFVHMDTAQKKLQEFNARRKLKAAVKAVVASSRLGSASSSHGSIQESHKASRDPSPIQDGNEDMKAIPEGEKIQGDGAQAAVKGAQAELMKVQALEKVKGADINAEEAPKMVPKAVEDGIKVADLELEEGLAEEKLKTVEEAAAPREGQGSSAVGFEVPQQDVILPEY

GSK3BB = molecular target: T10, GSK3BB (Homo sapiens, UniProt P49841); assay: DSF assay; format: binding; conditions: 20 µM compound
T10 construct: purchased in-house DSF panel (SGC-style construct names; the trailing A/B is a construct suffix)
T10 sequence (P49841 35-386): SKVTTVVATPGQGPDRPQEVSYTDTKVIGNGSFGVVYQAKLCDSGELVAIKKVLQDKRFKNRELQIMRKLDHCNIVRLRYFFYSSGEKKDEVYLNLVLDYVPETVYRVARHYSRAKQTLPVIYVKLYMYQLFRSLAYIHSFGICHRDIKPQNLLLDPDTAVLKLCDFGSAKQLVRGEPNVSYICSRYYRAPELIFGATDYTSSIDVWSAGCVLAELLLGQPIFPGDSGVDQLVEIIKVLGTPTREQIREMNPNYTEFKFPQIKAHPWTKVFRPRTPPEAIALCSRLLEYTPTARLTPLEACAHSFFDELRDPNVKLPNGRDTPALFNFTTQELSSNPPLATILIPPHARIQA

FLT1 = molecular target: T11, FLT1 (Homo sapiens, UniProt P17948); assay: DSF assay; format: binding; conditions: 20 µM compound
T11 construct: purchased in-house DSF panel (SGC-style construct names; the trailing A/B is a construct suffix)
T11 sequence (P17948 801-1158): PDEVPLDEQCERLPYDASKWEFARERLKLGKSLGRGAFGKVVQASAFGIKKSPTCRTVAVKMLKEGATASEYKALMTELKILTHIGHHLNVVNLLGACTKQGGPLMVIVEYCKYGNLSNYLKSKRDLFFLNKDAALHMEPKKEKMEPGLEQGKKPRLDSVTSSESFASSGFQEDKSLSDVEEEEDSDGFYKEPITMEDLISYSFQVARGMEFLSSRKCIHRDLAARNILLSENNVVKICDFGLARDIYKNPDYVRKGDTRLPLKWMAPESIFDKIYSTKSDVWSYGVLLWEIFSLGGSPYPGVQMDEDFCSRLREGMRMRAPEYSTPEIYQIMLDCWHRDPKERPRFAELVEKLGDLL

MAPK10A = molecular target: T12, MAPK10A (Homo sapiens, UniProt P53779); assay: DSF assay; format: binding; conditions: 20 µM compound
T12 construct: purchased in-house DSF panel (SGC-style construct names; the trailing A/B is a construct suffix)
T12 sequence (P53779 whole entry): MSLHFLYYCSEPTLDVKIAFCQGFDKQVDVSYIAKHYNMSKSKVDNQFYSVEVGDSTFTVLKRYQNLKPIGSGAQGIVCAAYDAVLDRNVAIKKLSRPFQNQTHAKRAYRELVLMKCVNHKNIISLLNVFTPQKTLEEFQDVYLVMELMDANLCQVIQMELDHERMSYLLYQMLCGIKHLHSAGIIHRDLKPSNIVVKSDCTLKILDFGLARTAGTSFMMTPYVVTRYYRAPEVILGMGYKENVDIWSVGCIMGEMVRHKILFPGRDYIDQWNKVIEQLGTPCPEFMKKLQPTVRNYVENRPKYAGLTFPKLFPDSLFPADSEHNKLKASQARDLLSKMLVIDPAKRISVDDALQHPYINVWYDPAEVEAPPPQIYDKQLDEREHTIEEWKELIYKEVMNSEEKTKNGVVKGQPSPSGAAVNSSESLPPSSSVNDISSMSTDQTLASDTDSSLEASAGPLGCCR

CLK1 = molecular target: T13, CLK1 (Homo sapiens, UniProt P49759); assay: DSF assay; format: binding; conditions: 20 µM compound
T13 construct: purchased in-house DSF panel (SGC-style construct names; the trailing A/B is a construct suffix)
T13 sequence (P49759 148-484): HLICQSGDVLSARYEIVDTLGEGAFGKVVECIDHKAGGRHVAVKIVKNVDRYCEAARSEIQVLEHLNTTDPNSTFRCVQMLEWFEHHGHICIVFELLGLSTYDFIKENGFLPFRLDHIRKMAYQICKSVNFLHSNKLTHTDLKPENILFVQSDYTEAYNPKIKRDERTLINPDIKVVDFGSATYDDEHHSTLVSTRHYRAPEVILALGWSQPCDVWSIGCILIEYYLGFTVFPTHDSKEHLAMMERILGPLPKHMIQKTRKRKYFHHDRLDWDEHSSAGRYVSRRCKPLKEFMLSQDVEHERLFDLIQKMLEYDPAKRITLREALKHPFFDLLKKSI

AURKA^HiBiT = molecular target: T14, AURKA^HiBiT (Homo sapiens, UniProt O14965); assay: HiBiT assay, MV4-11 cells expressing AURKA^HiBiT; format: cell-based; conditions: 6 h; for rescue of AURKA degradation by cotreatment with proteasome inhibitor MG132 / rescue of AURKA levels by cotreatment with neddylation inhibitor MLN4924: MV4-11 AURKA^HiBiT cells; for AURKA^HiBiT protein levels: MV4-11 cells
T14 construct: expressed in transfected cells
T14 sequence (O14965 1-403): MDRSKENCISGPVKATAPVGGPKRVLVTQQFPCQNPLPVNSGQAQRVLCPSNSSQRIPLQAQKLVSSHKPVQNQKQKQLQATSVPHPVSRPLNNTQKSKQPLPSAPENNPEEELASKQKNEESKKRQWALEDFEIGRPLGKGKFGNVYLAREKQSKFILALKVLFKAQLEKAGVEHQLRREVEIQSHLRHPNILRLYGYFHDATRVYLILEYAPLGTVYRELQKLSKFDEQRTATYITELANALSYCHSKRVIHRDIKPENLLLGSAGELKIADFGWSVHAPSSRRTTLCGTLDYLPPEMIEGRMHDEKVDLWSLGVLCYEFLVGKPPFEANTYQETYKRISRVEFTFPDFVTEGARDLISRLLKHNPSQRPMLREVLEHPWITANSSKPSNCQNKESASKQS
Method: The blots were incubated with respective primary antibodies at 1:1000 dilution (Cell Signaling technologies: Aurora A (D3E4Q), ITK (2F12) and GAPDH (D4C6R)) at 4 °C overnight. The blots were washed with TBS-T thrice and incubated with 1:5000 dilution of horseradish peroxidase (HRP)-labelled respective secondary antibodies (Cell Signaling technologies, Anti- […]
The blots were washed with TBS-T thrice and then incubated with chemiluminescent HRP substrate (Bio-Rad) for 2 minutes. The blots were imaged and the signals were detected using the Amersham ImageQuant 800 (Cytiva).
Cell culture. Human MV4-11 ([…]) and human Jurkat ([…]) cells were cultured in RPMI- […]
°C in 5% CO2. Both media were supplemented with 10% FBS and 1% penicillin/streptomycin. […]
Cell line generation. The stable cell line MV4-11 AURORA−HiBiT was generated as previously described.14 Lentiviral infection was used to generate the stable Jurkat HiBiT cell line. […] HiBiT Measurements. HiBiT assay was performed as described previously. 14 Briefly, MV4-11 and Jurkat HiBiT cells were seeded and treated with compounds for the indicated time. Nano-Glo HiBiT Lytic Detection System (Promega) was used for the assay and luminescence was measured on a Tecan Spark Multiplate reader (Tecan). DC50s were calculated using the dose-response (four parameters) equation in Prism (GraphPad).

T1 sequence (Q96GD4 whole entry): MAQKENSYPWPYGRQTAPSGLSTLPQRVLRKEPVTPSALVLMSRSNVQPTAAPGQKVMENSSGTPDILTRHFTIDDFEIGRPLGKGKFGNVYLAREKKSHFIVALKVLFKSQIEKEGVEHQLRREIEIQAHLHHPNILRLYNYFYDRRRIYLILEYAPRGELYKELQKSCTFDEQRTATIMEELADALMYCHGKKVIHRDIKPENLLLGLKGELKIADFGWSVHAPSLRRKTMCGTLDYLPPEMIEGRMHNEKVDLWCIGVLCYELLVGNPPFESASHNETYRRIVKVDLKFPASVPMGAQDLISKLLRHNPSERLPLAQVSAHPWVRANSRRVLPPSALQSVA

| SMILES | ΔTm at 20 µM (AURKBA) | ΔTm at 20 µM (CAMK1GA) | ΔTm at 20 µM (PIM3A) | ΔTm at 20 µM (SRCA) | ΔTm at 20 µM (STK39A) | ΔTm at 20 µM (EPHA7A) | ΔTm at 20 µM (GSG2A) | ΔTm at 20 µM (MAPK6) | ΔTm at 20 µM (CAMK4A) | ΔTm at 20 µM (GSK3BB) | ΔTm at 20 µM (FLT1) | ΔTm at 20 µM (MAPK10A) | ΔTm at 20 µM (CLK1) | rescue of AURKA degradation by cotreatment with proteasome inhibitor MG132 (AURKA^HiBiT) | rescue of AURKA levels by cotreatment with neddylation inhibitor MLN4924 (AURKA^HiBiT) | AURKA^HiBiT protein levels (AURKA^HiBiT) |
| --- | --- | --- | --- | --- | --- | --- | --- | --- | --- | --- | --- | --- | --- | --- | --- | --- |
| CCOC(=O)c1cc(Nc2cc(C3CC3)[nH]n2)nc(Nc2ccc(CC#N)cc2)n1 [compound 5] | 8.24 °C | 1.53 °C | -0.28 °C | 3.24 °C | 5.53 °C | 3.39 °C | 2.54 °C | -0.45 °C | 3.64 °C | 14.4 °C | 9.16 °C | 5.33 °C | 14.4 °C | – | – | – |
| CC(C)(C)OC(=O)NCCCOCCOCCOCCCNC(=O)c1cc(Nc2cc(C3CC3)[nH]n2)nc(Nc2ccc(CC#N)cc2)n1 [5-L] | 2.62 °C | 3.37 °C | 0.61 °C | 2.2 °C | 6.54 °C | 2.65 °C | 1.49 °C | 0.51 °C | 5.11 °C | 14.2 °C | 8.06 °C | 6.08 °C | 13.6 °C | – | – | – |
| Cc1ncsc1-c1ccc(CNC(=O)[C@@H]2C[C@@H](O)CN2C(=O)[C@@H](NC(=O)CCOCCOCCOCCOCCN2CCN(c3ccc(Nc4ncc(Cl)c(Nc5ccccc5C(N)=O)n4)cc3)CC2)C(C)(C)C)cc1 [6-b] | – | – | – | – | – | – | – | – | – | – | – | – | – | complete rescue | only partial rescue | dose-dependent degradation of AURKA |
| Cc1ncsc1-c1ccc(CNC(=O)[C@@H]2C[C@H](O)CN2C(=O)[C@@H](NC(=O)CCOCCOCCOCCN2CCN(c3cc(Nc4cc(C5CC5)[nH]n4)nc(Nc4ccc(CC#N)cc4)n3)CC2)C(C)(C)C)cc1 [4-a^neg] | – | – | – | – | – | – | – | – | – | – | – | – | – | – | – | weak reduction of AURKA levels |
| Cc1ncsc1-c1ccc(CNC(=O)[C@@H]2C[C@H](O)CN2C(=O)[C@@H](NC(=O)CCOCCOCCOCCOCCN2CCN(c3ccc(Nc4ncc(Cl)c(Nc5ccccc5C(N)=O)n4)cc3)CC2)C(C)(C)C)cc1 [6-b^neg] | – | – | – | – | – | – | – | – | – | – | – | – | – | – | – | weak reduction of AURKA levels |
| Cc1ncsc1-c1ccc(CNC(=O)[C@@H]2C[C@@H](O)CN2C(=O)[C@@H](NC(=O)CCOCCOCCOCCN2CCN(c3cc(Nc4cc(C5CC5)[nH]n4)nc(Nc4ccc(CC#N)cc4)n3)CC2)C(C)(C)C)cc1 [4-a] | – | – | – | – | – | – | – | – | – | – | – | – | – | complete rescue | only partial rescue | dose-dependent degradation of AURKA |
| CC(C)(C)OC(=O)NCCOCCOCCOCCOCCC(=O)N1CCN(c2cc(Nc3cc(C4CC4)[nH]n3)nc(Nc3ccc(CC#N)cc3)n2)CC1 [4-L] | 12.7 °C | 0.98 °C | -4.95 °C | 7.07 °C | 6.22 °C | 1.51 °C | 1.36 °C | -0.18 °C | 2.43 °C | 14.8 °C | 11.7 °C | 5.76 °C | 12 °C | – | – | – |
